Experiments:
Assay in all cases: relative viability (nuclei count vs DMSO), 5 days (fraction); higher = more cells survive
[1] = compound: Cc1ccc(C(=O)Nc2cccc(C(F)(F)F)c2)cc1Nc1cncc(C(N)=O)c1 [ALW-II-49-7] + CCNC(=O)c1noc(-c2cc(C(C)C)c(O)cc2O)c1-c1ccc(CN2CCOCC2)cc1 [Luminespib] (partner 0.01 µM)
In short: (§1)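 Lung cancer cell lines were pin-tool dosed in 1536-well plates on the day after seeding, with either a lone drug or a fixed anchor-drug dose plus five library-drug doses (not always all listed) in √10 steps. Nuclei were counted on 4× images after 5 days. Relative viability is the ratio of treated-well to vehicle-well nuclei counts, with each value a median of duplicate plates.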

[2] = compound: Cc1ccc(C(=O)Nc2cccc(C(F)(F)F)c2)cc1Nc1cncc(C(N)=O)c1 [ALW-II-49-7] + Nc1ncn([C@H]2C[C@H](O)[C@@H](CO)O2)c(=O)n1 [Decitabine] (partner 2 µM)
In short: as §1

[3] = compound: C1CC1C(=O)NC2=NNC3=C2C=CC(=C3)C4=CC(=CC=C4)C(=O)NC5CC5 [XMD13-2] + Nc1ncn([C@H]2C[C@H](O)[C@@H](CO)O2)c(=O)n1 [Decitabine] (partner 2 µM)
In short: as §1

[4] = compound: Cc1nc(Nc2ncc(C(=O)Nc3c(C)cccc3Cl)s2)cc(N2CCN(CCO)CC2)n1 [Dasatinib] + C[C@]1(O)C[C@@H](c2nc(-c3ccc4ccc(-c5ccccc5)nc4c3)c3c(N)nccn32)C1 [Linsitinib] (partner 1 µM)
In short: as §1

UMC-11
relative viability ([1]; first compound 0.08 µM): 1.19
relative viability ([1]; first compound 0.253 µM): 0.939
relative viability ([1]; first compound 0.8 µM): 1.14
relative viability ([1]; first compound 2.53 µM): 0.983
relative viability ([1]; first compound 8 µM): 1
relative viability ([2]; first compound 0.08 µM): 0.642
relative viability ([2]; first compound 0.253 µM): 0.663
relative viability ([2]; first compound 0.8 µM): 0.58
relative viability ([2]; first compound 2.53 µM): 0.419
relative viability ([2]; first compound 8 µM): 0.552
relative viability ([3]; first compound 0.05 µM): 0.62
relative viability ([3]; first compound 0.1581 µM): 0.585
relative viability ([3]; first compound 0.5 µM): 0.793
relative viability ([3]; first compound 1.581 µM): 0.625
relative viability ([3]; first compound 5 µM): 0.579
relative viability ([4]; first compound 0.005 µM): 0.911
relative viability ([4]; first compound 0.01581 µM): 0.827
relative viability ([4]; first compound 0.05 µM): 0.543
relative viability ([4]; first compound 0.1581 µM): 0.342
relative viability ([4]; first compound 0.5 µM): 0.319
